In patent US20240408145A1, “Gene Therapy” (Ospedale San Raffaele S.r.l., priority 2021, published 2024):
Entries after “also recorded” stand apart in the source; their conditions may differ.

Tests used:
[1] = tested on: BM-derived human CD34+ cells; assay: CFU-C assay of CD34+ cells retrieved from bone marrow of primary recipients; format: cell-based; details: 15-18 weeks, inhibitor at time of ex vivo GE vs standard protocol
CB-derived HSPCs = assay: Whole transcriptomic analysis with GSEA; format: cell-based, human; details: CB HSPCs edited in presence of Anakinra vs not treated, 24 and 96 h
Experimental: Whole transcriptomic analysis was performed on a pool of HSPCs derived from five CB donors. All conditions were performed in triplicate. […] RNA was quantified with The Qubit 2.0 Fluorometer (ThermoFisher) and its quality was assessed by a 2100 Agilent Bioanalyser (Agilent Technologies). Minimum quality was defined as RNA integrity number (RIN) >8,300 ng of total RNA were used for library preparation with TruSeq Stranded Total RNA with Ribo-Zero Gold kit (Illumina) and sequenced on a NextSeq 500 (Illumina). Read quality was determined using FastQC and low-quality sequences were trimmed using Trimmomatic. RNA-seq data were aligned to the human reference genome (GRCh38/hg38) using both HISAT2 and STAR with standard input parameters. Gene counts were produced using Subread featureCounts against Genecode v26 or v31, considering results produced by both the aligners. After visual inspection of results, we continued the analysis using alignments achieved using HISAT, which provided more conservative alignments. […] Differential expression was determined considering only protein coding genes and correcting p-values using FDR.

[2] = tested on: HDR-edited human HSPC clones; assay: BAR-Seq clonal tracking of HDR-edited HSPCs; format: in vivo, NSG mice; details: end of experiment; inhibitor at time of GE vs standard gene edited cells
Experimental: PCR amplicons for individual samples were generated by nested PCR using primers listed in Ferrari, S. et al., 2020, Nat Biotech 38(11):1298-1308 and starting from >50-100 ng of purified gDNA. The first PCR step was performed with GoTaq G2 DNA Polymerase (Promega) according to the manufacturer's instructions using the following amplification protocol: 95° C. for 5 min, (95° C. for 0.5 min, 60° C. for 0.5 min, 72° C. for 0.5 min)×20 cycles, 72° C. for 5 min. Forward primer was designed to bind donor template upstream the BAR sequence, while the reverse primer annealed outside the homology arm, thus amplifying 328 bp of the on-target integrated cassette. For targeted deep sequencing of the plasmid and AAV libraries, the reverse primer annealed to the homology arm. […] Library quality was assessed by Agilent Tapestation (Agilent Technologies). […]
BAR-Seq data were processed with TagDust57 (v.2.33) to identify and extract the BAR from each sample by taking advantage of the structural composition of the reads. […] BAR abundance was quantified by summing the number of identical sequences. […] BARs with a read count lower than three were discarded and the remaining set of BARs were identified as the valid BARs of this sample. […]

human CD34+ HSPCs [3] = assay: Colony-forming unit cell (CFU-C) assay; format: cell-based
CDKN1A (p21) = assay: p21 expression in edited HSPCs (qPCR); format: cell-based, human; details: CB HSPCs, HS/AAV6 ± Anakinra, 24 and 96 h
Experimental: (§1) For gene expression analyses, total RNA was extracted using either miRNeasy Micro Kit (QIAGEN) according to the manufacturer's instructions and DNase treatment was performed using RNase-free DNase Set (QIAGEN). cDNA was synthetized with iScript cDNA Synthesis Kit (Bio-Rad). cDNA was then pre-amplified using TaqMan PreAmp Master Mix (ThermoFisher) and used for q-PCR in a Viia7 Real-time PCR thermal cycler using both Fast SYBR Green Master Mix (Thermofisher), after standard curve method optimization to reach the 100% primer efficiency for each couple of primers listed in 1. The relative expression of each target gene was first normalized to GUSB housekeeping genes expression and then represented as 2^-DCt for each sample or as fold changes (2^-DDCt) relative to the indicated control conditions.

IL8, CXCL10, p21, p16 = assay: Gene expression in BM-derived HSPCs (qPCR); format: cell-based, human; details: HS/AAV6 ± Anakinra
Experimental: as §1

human CD34+ HSPCs [4] = assay: HDR gene editing efficiency in HSPCs (ddPCR, GFP flow cytometry); format: cell-based

Question: With “Anakinra: recombinant and slightly modified form of the Human interleukin-1 receptor antagonist (IL-1Ra); SEQ ID NO: 3” as the substance, how does the “Number of colonies formed by BM-derived CD34+ cells” value [1] read?
Answer: higher clonogenic potential

Question: And the “GSEA normalized enrichment scores for inflammatory/TNFα dependent pathways, interferon responses, senescence categories” value (CB-derived HSPCs)?
Answer: negative and significantly high normalized enrichment scores (NES); also recorded: downregulated early and late upon Anakinra treatment

Question: And the “Number of dominant unique BARs in human BM-derived cells (polyclonal reconstitution)” value [2]?
Answer: higher long-term polyclonal reconstitution

Question: What about the “Number of colonies (HSPC clonogenic potential)” value (human CD34+ HSPCs [3]; CB HSPCs, HS/AAV6, inhibitor at time of GE vs standard protocol, 24 h and 96 h post GE) of the same substance?
Answer: significant increase in HSPC clonogenic potential; also recorded: strongly improved HSPC clonogenic potential in vitro; also recorded: strongly improved HSPC clonogenic potential ex-vivo

Question: What about the “Clonogenic potential (number of colonies)” value (human CD34+ HSPCs [3]; HSPCs edited with COMBO, 24 and 96 h) of the same substance?
Answer: increase in the clonogenic potential of the cells

Question: What about the “Clonogenic potential of edited cells” value (human CD34+ HSPCs [3]; mPB-derived HSPCs, 24 and 96 h post GE) of the same substance?
Answer: significantly improved the clonogenic potential of edited cells

Question: What about the “Relative expression of CDKN1A (p21)” value (CDKN1A (p21)) of the same substance?
Answer: upregulated upon GE compared to negative controls independently from Anakinra treatment

Question: What about the “Relative expression of pro-inflammatory cytokines (IL8, CXCL10) in BM-derived edited CD34+ cells” value (IL8, CXCL10, p21, p16) of the same substance?
Answer: decrease in pro-inflammatory cytokines expression

Question: What about the “Percentage of HDR-edited alleles (ddPCR)” value (human CD34+ HSPCs [4]; CB HSPCs, AAVS1 editing (HS/AAV6), inhibitor at time of GE (Anakinra 50 ng/μl, SC514 25 μM, GSE56 mRNA, ATMi) vs standard protocol) of the same substance?
Answer: equal percentage of HDR-edited alleles; also recorded: did not affect HSPC ability to repair via HDR

Question: What about the “Percentage of GFP+ cells within HSPC subpopulations (GE efficiency)” value (human CD34+ HSPCs [4]; CB HSPCs, HS/AAV6, inhibitor at time of GE vs standard protocol) of the same substance?
Answer: maintained the efficiency of GE across all HSPC subpopulations; also recorded: no significant differences in GE efficiency in all HSPC subpopulations

Question: And the “HSPC ability to repair via HDR (GFP+ cells)” value (human CD34+ HSPCs [4]; HSPCs edited with COMBO)?
Answer: without impairing HSPC ability to repair via HDR

Question: What about the “HDR ability / percentage of GFP+ cells in HSPC subpopulations” value (human CD34+ HSPCs [4]; mPB-derived HSPCs, AAVS1, inhibitor within 15 minutes upon GE) of the same substance?
Answer: did not affect HSPC ability to repair via HDR
